In article PMC4406830 (Biochemistry, 2015):

Assays:
[1] = biological target: T1, MtmC (Streptomyces argillaceus, UniProt Q194Q4); experiment: crystal structure, […] Å; type: binding; conditions: binary complex; central-domain site; crystals pH 5.5
T1 sequence (Q194Q4 1-420): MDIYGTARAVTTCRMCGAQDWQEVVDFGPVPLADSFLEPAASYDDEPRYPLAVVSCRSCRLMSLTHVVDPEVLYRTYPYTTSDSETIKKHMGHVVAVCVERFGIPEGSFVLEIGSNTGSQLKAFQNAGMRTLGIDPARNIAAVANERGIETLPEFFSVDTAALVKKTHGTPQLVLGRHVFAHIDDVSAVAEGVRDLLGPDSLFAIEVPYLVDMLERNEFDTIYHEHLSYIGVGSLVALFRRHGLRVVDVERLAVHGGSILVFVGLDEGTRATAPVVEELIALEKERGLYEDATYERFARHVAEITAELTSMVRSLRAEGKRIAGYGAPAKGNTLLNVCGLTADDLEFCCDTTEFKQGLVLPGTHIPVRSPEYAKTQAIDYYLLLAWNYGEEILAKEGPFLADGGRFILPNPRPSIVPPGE

[2] = biological target: T1, MtmC; experiment: crystal structure, […] Å; type: binding; conditions: binary complex; C-terminal domain site; crystals pH 5.5

Compound | crystal structure, 2.2 Å [1] | crystal structure, 2.7 Å [2]
C[S+](CC[C@H](N)C(=O)O)C[C@H]1O[C@@H](n2cnc3c(N)ncnc32)[C@H](O)[C@@H]1O (some centres unmarked) [SAM] | 4RVD (complex with SAM) | –
Cc1cn([C@H]2C[C@H](O)[C@@H](COP(=O)(O)OP(=O)(O)O)O2)c(=O)[nH]c1=O [TDP] | – | 4RVF (complex with TDP)
